# Experimental data as given in patent publication US20200407717A1, “METHODS OF MODULATING ANTISENSE ACTIVITY” (Ionis Pharmaceuticals, Inc., priority 2018, published 2020).
# In the oligonucleotide strings, read from the 5' end, every base follows the letter of its sugar. An asterisk marks phosphorothioate; unmarked linkages are phosphodiester. Other units and linkages are bracketed, terminal groups are in braces. A string of capitals states the bases alone. e = 2'-O-(2-methoxyethyl) (MOE); k = constrained ethyl (cEt); [5mC] = 5-methylcytosine; d = 2'-deoxy (DNA); f = 2'-fluoro
# Target: EGFR (Homo sapiens, UniProt P00533)
# Experiment: Competitive NanoBRET binding assay
# Design: made in house; host or cells: HEK293 cells
# Settings: Competitive BRET vs 10 nM AF594-labeled 766636; Table 6
# Procedure: NanoBRET (bioluminescence resonance energy transfer) binding assays were performed as described in Vickers and Crooke. PLOS One, 11(8), (2016). An EGFR NLuc construct was prepared by first amplifying human EGFR from the full length cDNA clone (Origene RC217223) with forward PCR primer 5′-[…]-3′ (SEQ ID NO: 1) and reverse PCR primer 5′-[…] (SEQ ID NO: 2). The amplified product was ligated into the NheI and XhoI sites of the NanoLuc expression vector pFC32K Nluc CMV-Neo (Promega). Protein was expressed in HEK293 cells and isolated using Protein G magnetic beads. For competitive BRET, the Alexafluor594-labeled modified oligonucleotide 766636 was diluted into water in opaque white 96-well plates at 10 nM and competed with 0.1-10,000 nM of unlabeled modified oligonucleotide. […] of 2× binding buffer containing […] (relative luminescence units) beads/well was added and plates were shaken for 10 minutes at room temperature. Nanoluciferase activity and BRET were measured in a Glowmax Discover plate reader and EC50 values, shown in the tables below, were calculated using GraphPad Prism. For direct BRET, Alexafluor594 modified nucleotides were diluted at 0.1-10,000 nM and experiments were performed as described above.
row,Substance,EC50 [µM]
1,"AGTTGTCATGGATGAC (sugars from the 5' end k3 d10 k3, all phosphorothioate, methylation of C not given here) [compound 999003]",2.3
2,"TGGCAGTGATGGCATG (sugars from the 5' end k3 d10 k3, all phosphorothioate, methylation of C not given here) [compound 999000]",1.4
3,"ATATTGCATCAGATCTCAAT (sugars from the 5' end f5 d10 f5, all phosphorothioate, methylation of C and T or U not given here) [compound 1147370]",4.65
4,"ACCCAATTCAGAAGGAAGGA (sugars from the 5' end e5 d10 e5, all phosphorothioate, methylation of C not given here) [compound 476366, 5-10-5 2′-MOE gapmer, phosphorothioate]",2.24
5,"CTGATGATCTGCAGGTTTTC (sugars from the 5' end f5 d10 f5, all phosphorothioate, methylation of C and T or U not given here) [compound 1147367]",0.114
6,"GGCCATCACGCCACAG (sugars from the 5' end k3 d10 k3, all phosphorothioate, methylation of C not given here) [compound 998997, 3-10-3 cEt gapmer, phosphorothioate]",2.8
7,"AGGATGCATTGCTGAC (sugars from the 5' end k3 d10 k3, all phosphorothioate, methylation of C not given here) [compound 999006]",1.71
8,"CAGCAGGCAACTGTCGCTGA (sugars from the 5' end e5 d10 e5, all phosphorothioate, methylation of C not given here) [compound 462026, 5-10-5 2′-MOE gapmer, phosphorothioate]",0.67
9,"CUGUUGGGATATTTTAGCCU (sugars from the 5' end f5 d10 f5, all phosphorothioate, methylation of C not given here) [compound 1147366]",0.0873
10,"AATCTCCTTGCTGTATTTGT (sugars from the 5' end f5 d10 f5, all phosphorothioate, methylation of C and T or U not given here) [compound 1147334, 5-10-5 2′-F gapmer, phosphorothioate]",4.37
11,"TGGTAATCCACTTTCAGAGG (sugars from the 5' end e5 d10 e5, all phosphorothioate, methylation of C not given here) [compound 404071, 5-10-5 2′-MOE gapmer, phosphorothioate]",3.14
12,"AAGCAGTTGGTGGTGC (sugars from the 5' end k3 d10 k3, all phosphorothioate, methylation of C not given here) [compound 999005]",0.0391
13,"TCCACAGTCTTCTGGG (sugars from the 5' end k3 d10 k3, all phosphorothioate, methylation of C not given here) [compound 998999, 3-10-3 cEt gapmer, phosphorothioate]",0.214
14,"CCTTCCCTGAAGGTTCCTCC (sugars from the 5' end f5 d10 f5, all phosphorothioate, methylation of C and T or U not given here) [compound 804856, 5-10-5 2′-F gapmer, phosphorothioate]",2.75
15,"TCGTCTGTGCATCTCTCCTG (sugars from the 5' end f5 d10 f5, all phosphorothioate, methylation of C and T or U not given here) [compound 1147291, 5-10-5 2′-F gapmer, phosphorothioate]",0.165
16,"AUAAUCTTCCAGGGCCACAA (sugars from the 5' end f5 d10 f5, all phosphorothioate, methylation of C not given here) [compound 1147360, 5-10-5 2′-F gapmer, phosphorothioate]",0.108
17,"CTAACATGCAATACTGCAGA (sugars from the 5' end e5 d10 e5, all phosphorothioate, methylation of C not given here) [compound 395257, 5-10-5 2′-MOE gapmer, phosphorothioate]",2.63
18,"CTTTCCAGAGGGGCCA (sugars from the 5' end k3 d10 k3, all phosphorothioate, methylation of C not given here) [compound 998998, 3-10-3 cEt gapmer, phosphorothioate]",0.00725
19,"CCTTCCACAATGCCAA (sugars from the 5' end k3 d10 k3, all phosphorothioate, methylation of C not given here) [compound 999002, 3-10-3 cEt gapmer, phosphorothioate]",0.633
20,"TAAGTACTACTGGGCCATGG (sugars from the 5' end e5 d10 e5, all phosphorothioate, methylation of C not given here) [compound 324568, 5-10-5 2′-MOE gapmer, phosphorothioate]",0.648
21,"TTTTGGCAAAGTAATCGTCC (sugars from the 5' end e5 d10 e5, all phosphorothioate, methylation of C not given here) [compound 286529, 5-10-5 2′-MOE gapmer, phosphorothioate]",1.84
22,"ACACGGTATTGCCCTTGAAA (sugars from the 5' end e5 d10 e5, all phosphorothioate, methylation of C not given here) [compound 110128, 5-10-5 2′-MOE gapmer, phosphorothioate]",2.28
23,"GAGTCAGTATCCCAGTGTCT (sugars from the 5' end f5 d10 f5, all phosphorothioate, methylation of C and T or U not given here) [compound 1147314, 5-10-5 2′-F gapmer, phosphorothioate]",0.218
24,"AACGAGGTACTGTGTAAGTC (sugars from the 5' end f5 d10 f5, all phosphorothioate, methylation of C and T or U not given here) [compound 1147369]",2.63
25,"GACTGTGGTCATGAGC (sugars from the 5' end k3 d10 k3, all phosphorothioate, methylation of C not given here) [compound 999001]",2.34
26,"TTCTGGGCAGCCCCAC (sugars from the 5' end k3 d10 k3, all phosphorothioate, methylation of C not given here) [compound 998996, 3-10-3 cEt gapmer, phosphorothioate]",1.43

# System: EGF-EGFR signaling
# Experiment: EGFR signaling western blot (p-EGFR, p-ERK), A431 cells
# Assay type: cell-based
# Settings: 2 μM for 16 hours
# Procedure: In order to test the effects of a PS-ASO on EGFR signaling, A431 cells were incubated with compound no. 116847 or no PS-ASO compound for 16 hours. All cells were then treated with EGF prior to being subjected to the pulse-chase protocol described above. Cell lysates were run on a SDS-PAGE gel and analyzed by sequential western blot for phosphorylated EGFR (P-EGFR), total EGFR (T-EGFR), phosphorylated ERK (P-ERK), and total ERK (T-ERK) using the antibodies described above for EGFR, 4370 for P-ERK (Cell Signaling Technology), and 4695 for T-ERK (Cell Signaling Technology).
# 110080, 25690, 25699, 395251, or 395254 at 2 μM for 16 hours prior to carrying out the pulse-chase experiment described above.
row,Substance,EGFR signaling
1,^mCesGesTes^mCesGesTds^mCdsGdsTds^mCdsAdsTds^mCds^mCdsTds^mCesGesTes^mCes^mCe (antisense e[5mC]*eG*eT*e[5mC]*eG*dT*d[5mC]*dG*dT*d[5mC]*dA*dT*d[5mC]*d[5mC]*dT*e[5mC]*eG*eT*e[5mC]*e[5mC]) [compound 110080],not be impacted
2,AesGesTes^mCesTesAdsGdsGdsGdsTds^mCdsAds^mCdsAdsAdsTes^mCesTesGesGe (antisense eA*eG*eT*e[5mC]*eT*dA*dG*dG*dG*dT*d[5mC]*dA*d[5mC]*dA*dA*eT*e[5mC]*eT*eG*eG) [compound 25699],not be impacted
3,^mCes^mCesAesGesGes^mCdsTdsGdsGdsTdsTdsAdsTdsGdsAds^mCesTes^mCesAesGe (antisense e[5mC]*e[5mC]*eA*eG*eG*d[5mC]*dT*dG*dG*dT*dT*dA*dT*dG*dA*e[5mC]*eT*e[5mC]*eA*eG) [compound 395251],not be impacted
